Results from PubChem BioAssay (NCI).
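Cells were grown in 96-well plates and exposed to each compound for 48 hours at five concentrations; endpoints were interpolated linearly between bracketing concentrations, or set to the highest concentration if not reached. Here, GI50 denotes the concentration required for 50% inhibition of growth. The concentration for full growth arrest is given as TGI.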

Key:
Experiment in all cases: inhibition of tumour cell growth, NCI panel, 48 h
HOP-62 NSCLC = test system: HOP-62 NSCLC
SK-OV-3 ovarian = test system: SK-OV-3 ovarian
NCI-H23 lung = test system: NCI-H23 lung
NCI-H522 lung = test system: NCI-H522 lung
MDA-MB-435 = test system: MDA-MB-435
UACC-62 melanoma = test system: UACC-62 melanoma
CAKI-1 renal = test system: CAKI-1 renal
NCI-H460 lung = test system: NCI-H460 lung
SF-539 CNS = test system: SF-539 CNS
DU-145 prostate = test system: DU-145 prostate
MDA-MB-468 breast = test system: MDA-MB-468 breast
RPMI-8226 leukemia = test system: RPMI-8226 leukemia
M14 melanoma = test system: M14 melanoma
K-562 leukemia = test system: K-562 leukemia
SNB-75 CNS = test system: SNB-75 CNS
NCI-H226 lung = test system: NCI-H226 lung
A549 NSCLC = test system: A549 NSCLC
EKVX NSCLC = test system: EKVX NSCLC
OVCAR-3 ovarian = test system: OVCAR-3 ovarian
SW-620 colon = test system: SW-620 colon
HL-60(TB) leukemia = test system: HL-60(TB) leukemia
786-0 renal = test system: 786-0 renal
SK-MEL-28 melanoma = test system: SK-MEL-28 melanoma
U251 CNS = test system: U251 CNS
BT-549 breast = test system: BT-549 breast
MOLT-4 leukemia = test system: MOLT-4 leukemia
HOP-92 NSCLC = test system: HOP-92 NSCLC
T-47D breast = test system: T-47D breast
HT29 colon = test system: HT29 colon
MCF7 breast = test system: MCF7 breast
SNB-19 CNS = test system: SNB-19 CNS
UACC-257 melanoma = test system: UACC-257 melanoma
RXF 393 renal = test system: RXF 393 renal
SF-295 CNS = test system: SF-295 CNS
OVCAR-5 ovarian = test system: OVCAR-5 ovarian
CCRF-CEM leukemia = test system: CCRF-CEM leukemia
A498 renal = test system: A498 renal
OVCAR-4 ovarian = test system: OVCAR-4 ovarian
ACHN renal = test system: ACHN renal
SF-268 CNS = test system: SF-268 CNS
COLO 205 colon = test system: COLO 205 colon
UO-31 renal = test system: UO-31 renal
MDA-MB-231 breast = test system: MDA-MB-231 breast
KM12 colon = test system: KM12 colon
HCT-15 colon = test system: HCT-15 colon
OVCAR-8 ovarian = test system: OVCAR-8 ovarian
TK-10 renal = test system: TK-10 renal
SR leukemia = test system: SR leukemia
HS 578T breast = test system: HS 578T breast
HCC-2998 colon = test system: HCC-2998 colon
MALME-3M melanoma = test system: MALME-3M melanoma
SK-MEL-5 melanoma = test system: SK-MEL-5 melanoma
PC-3 prostate = test system: PC-3 prostate
HCT-116 colon = test system: HCT-116 colon
IGROV1 ovarian = test system: IGROV1 ovarian
LOX IMVI melanoma = test system: LOX IMVI melanoma
SN12C renal = test system: SN12C renal
SK-MEL-2 melanoma = test system: SK-MEL-2 melanoma

SMILES: COc1ccc(-c2ccnc(SCc3cc4cc(Cl)ccc4[nH]c3=O)n2)cc1
- GI50 (HOP-62 NSCLC): 3.45 µM
- TGI (HOP-62 NSCLC): 16.6 µM
- GI50 (SK-OV-3 ovarian): 4.97 µM
- TGI (SK-OV-3 ovarian): 21.2 µM
- GI50 (NCI-H23 lung): 13.7 µM
- TGI (NCI-H23 lung): 45.1 µM
- GI50 (NCI-H522 lung): 5.18 µM
- TGI (NCI-H522 lung): 32.4 µM
- GI50 (MDA-MB-435): 14.4 µM
- TGI (MDA-MB-435): > 100 µM
- GI50 (UACC-62 melanoma): 14.8 µM
- TGI (UACC-62 melanoma): 53.2 µM
- GI50 (CAKI-1 renal): 7.7 µM
- TGI (CAKI-1 renal): 27.1 µM
- GI50 (NCI-H460 lung): 5.63 µM
- TGI (NCI-H460 lung): 58.7 µM
- GI50 (SF-539 CNS): 3.16 µM
- TGI (SF-539 CNS): 14.8 µM
- GI50 (DU-145 prostate): 10.2 µM
- TGI (DU-145 prostate): 24.2 µM
- GI50 (MDA-MB-468 breast): 5.59 µM
- TGI (MDA-MB-468 breast): 35.9 µM
- GI50 (RPMI-8226 leukemia): 16.8 µM
- TGI (RPMI-8226 leukemia): > 100 µM
- GI50 (M14 melanoma): 25 µM
- TGI (M14 melanoma): > 100 µM
- GI50 (K-562 leukemia): 31.2 µM
- TGI (K-562 leukemia): > 100 µM
- GI50 (SNB-75 CNS): 1.69 µM
- TGI (SNB-75 CNS): 3.98 µM
- GI50 (NCI-H226 lung): 2.96 µM
- TGI (NCI-H226 lung): 10.4 µM
- GI50 (A549 NSCLC): 15.6 µM
- TGI (A549 NSCLC): > 100 µM
- GI50 (EKVX NSCLC): 12.2 µM
- TGI (EKVX NSCLC): 64.9 µM
- GI50 (OVCAR-3 ovarian): 9.93 µM
- TGI (OVCAR-3 ovarian): 27.2 µM
- GI50 (SW-620 colon): 26.2 µM
- TGI (SW-620 colon): > 100 µM
- GI50 (HL-60(TB) leukemia): > 100 µM
- TGI (HL-60(TB) leukemia): > 100 µM
- GI50 (786-0 renal): 15.1 µM
- TGI (786-0 renal): 36.5 µM
- GI50 (SK-MEL-28 melanoma): 7.39 µM
- TGI (SK-MEL-28 melanoma): 31.6 µM
- GI50 (U251 CNS): 13.5 µM
- TGI (U251 CNS): 46.6 µM
- GI50 (BT-549 breast): 6.21 µM
- TGI (BT-549 breast): 33.2 µM
- GI50 (MOLT-4 leukemia): 38.6 µM
- TGI (MOLT-4 leukemia): > 100 µM
- GI50 (HOP-92 NSCLC): 5.49 µM
- TGI (HOP-92 NSCLC): 39.8 µM
- GI50 (T-47D breast): 19.7 µM
- TGI (T-47D breast): > 100 µM
- GI50 (HT29 colon): 53.6 µM
- TGI (HT29 colon): > 100 µM
- GI50 (MCF7 breast): 8.74 µM
- TGI (MCF7 breast): 58.1 µM
- GI50 (SNB-19 CNS): 3.7 µM
- TGI (SNB-19 CNS): 28.6 µM
- GI50 (UACC-257 melanoma): 16.4 µM
- TGI (UACC-257 melanoma): 82 µM
- GI50 (RXF 393 renal): 2.27 µM
- TGI (RXF 393 renal): 8.31 µM
- GI50 (SF-295 CNS): 5.49 µM
- TGI (SF-295 CNS): 26.8 µM
- GI50 (OVCAR-5 ovarian): 21 µM
- TGI (OVCAR-5 ovarian): 85.8 µM
- GI50 (CCRF-CEM leukemia): 16 µM
- TGI (CCRF-CEM leukemia): > 100 µM
- GI50 (A498 renal): 17.5 µM
- TGI (A498 renal): 46.2 µM
- GI50 (OVCAR-4 ovarian): 3.85 µM
- TGI (OVCAR-4 ovarian): 24.5 µM
- GI50 (ACHN renal): 5.64 µM
- TGI (ACHN renal): 19.8 µM
- GI50 (SF-268 CNS): 3.41 µM
- TGI (SF-268 CNS): 20.4 µM
- GI50 (COLO 205 colon): 44.8 µM
- TGI (COLO 205 colon): > 100 µM
- GI50 (UO-31 renal): 14.5 µM
- TGI (UO-31 renal): 54.4 µM
- GI50 (MDA-MB-231 breast): 9.03 µM
- TGI (MDA-MB-231 breast): 32.2 µM
- GI50 (KM12 colon): 19.9 µM
- TGI (KM12 colon): > 100 µM
- GI50 (HCT-15 colon): 29 µM
- TGI (HCT-15 colon): > 100 µM
- GI50 (OVCAR-8 ovarian): 4.9 µM
- TGI (OVCAR-8 ovarian): > 100 µM
- GI50 (TK-10 renal): 26.3 µM
- TGI (TK-10 renal): 90 µM
- GI50 (SR leukemia): 21.6 µM
- TGI (SR leukemia): > 100 µM
- GI50 (HS 578T breast): 2.77 µM
- TGI (HS 578T breast): 9.75 µM
- GI50 (HCC-2998 colon): 27.6 µM
- TGI (HCC-2998 colon): > 100 µM
- GI50 (MALME-3M melanoma): 4.72 µM
- TGI (MALME-3M melanoma): 27.4 µM
- GI50 (SK-MEL-5 melanoma): 14.2 µM
- TGI (SK-MEL-5 melanoma): 71.6 µM
- GI50 (PC-3 prostate): 6.9 µM
- TGI (PC-3 prostate): 45.7 µM
- GI50 (HCT-116 colon): 14 µM
- TGI (HCT-116 colon): > 100 µM
- GI50 (IGROV1 ovarian): 27.1 µM
- TGI (IGROV1 ovarian): > 100 µM
- GI50 (LOX IMVI melanoma): 15 µM
- TGI (LOX IMVI melanoma): > 100 µM
- GI50 (SN12C renal): 11.6 µM
- TGI (SN12C renal): > 100 µM
- GI50 (SK-MEL-2 melanoma): 14.6 µM
- TGI (SK-MEL-2 melanoma): 39.2 µM
